Test results from patent US4055640A, “Compositions and methods for controlling the growth of bacteria, fungi and algae using certain derivatives of N-(2,2-dichlorovinyl)salicylamides” (Nippon Kayaku Co., Ltd., priority 1975, dated 1977).
Where a name gives a salt, the structure may show the parent alone.

What was measured:
Staphylococcus aureus [1] = assay: Growth inhibition zones around treated clothes (Example 16); format: cell-based
Procedure: (§1) The emulsifiable concentrate which was prepared by Example 10 and which contained 10% of Compound No. 1 was entered to three vessels. These emulsifiable concentrates were diluted with water 500 times, 1000 times and 2000 times respectively. Emulsions were obtained. Each of silk, cotton and vinylon clothes was dipped into the three different concentrations of emulsions for 3 minutes and dried for 24 hours at room temperature. The clothes dreid were cut into a square of which a side was 1 cm long.
(§2) Test bacteria and fungi were inoculated on the whole surfaces of the plates of potato-dextrose agar medium. The square clothes were placed on the plates of agar culture medium of potato. The inoculated bacteria and fungi were incubated at 28° C for 4 days. The width of zones in which the growth of the test bateria and fungi was inhibited in the environment of the clothes was measured.

Aspergillus niger [2] = assay: as above; format: cell-based
Procedure: as §1, §2

Penicillium citrenum = assay: as above; format: cell-based
Procedure: as §1, §2

Bacillus subtilis [3] = assay: as above; format: cell-based
Procedure: as §1, §2

[4] = system: fungi in the paints or the cutting oil; assay: Growth of fungi in paints or cutting oil (Example 11); settings: oil soluble concentrate, 0.1%
Procedure: The above ingredients were mixed. An oil soluble concentrate was obtained. In the form of the oil soluble concentrate, Compound No. 1 was added to paints or the cutting oil in an amount of 0.1%.

[5] = system: Fusarium wilt of cucumber; assay: Exterminating test on Fusarium wilt of cucumber (Experimental Example 4); format: in vivo, Fusarium oxysporum f, cucumerinum; settings: Fusarium, soil, 336 h, 500 ppm, soil drench 100 ml per pot, two weeks; read-out: Percentage of healthy seedlings
Summary of the method: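 Pots of steam-sterilized soil mixed with 20 g infested soil, sown with 18 cucumber seeds (Tokiwazibai), drenched with 100 ml aqueous suspension of 80% wettable powder. Benlate 50% wettable powder run as control. Disease scored two weeks after planting as percentage of healthy seedlings.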

[6] = system: Xanthomonas citri (citrus canker); assay: Exterminating test on citrus canker (Experimental Example 6); format: in vivo; settings: Xanthomonas citri, 336 h, read-out: Effect Index, 1,000 ppm, 2 weeks after inoculation
Summary of the method: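 Four-year-old potted summer orange seedlings sprayed with diluted 80% wettable powder, then needle-inoculated on leaves with Xanthomonas citri and held 24 h moist at 25 °C before greenhouse. Disease attack scored 2 weeks post-inoculation and expressed as an Effect Index.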

Aspergillus niger [7] = assay: Region of growth-inhibition around treated cotton cloth (Example 26); format: cell-based; settings: emulsifiable concentrate diluted 100 times
Procedure: (§3) The emulsifiable concentrates which were prepared by Example 20 were diluted with water 100 times to form an emulsion. A cloth of cotton was soaked into each emulsion for 2 minutes. The clothes were dried at room temperature and cut into a square of which a side was 1 cm long. Each kind of test bacteria and fungi was inoculated, separately, on plates of potato-agar and one square cloth placed on each of such plates. Test bacteria and fungi were cultivated at 28° C for 4 days. The width of the region of growth-inhibition which was formed a circumference of the cloth was measured.

Penicillium Citrinum [8] = assay: as above; format: cell-based; settings: emulsifiable concentrate diluted 100 times
Procedure: as §3

Staphylococcus oureus = assay: as above; format: cell-based; settings: emulsifiable concentrate diluted 100 times
Procedure: as §3

Bacillus subtilis [9] = assay: as above; format: cell-based; settings: emulsifiable concentrate diluted 100 times
Procedure: as §3

Staphylococcus aureus [10] = assay: Growth inhibition zone around treated cotton cloth (Example 18); format: cell-based; settings: emulsifiable concentrate diluted 1000 times
Procedure: as §3, with “by Example 10 were diluted” for “by Example 20 were diluted”, “with water 1000 times to” for “with water 100 times to”, “was inoculated, separately on plates” for “was inoculated, separately, on plates”, “square cloth was placed on” for “square cloth placed on”, “cloth was examined.” for “cloth was measured.”

Aspergillus niger [11] = assay: as above; format: cell-based; settings: emulsifiable concentrate diluted 1000 times
Procedure: as §3, with “by Example 10 were diluted” for “by Example 20 were diluted”, “with water 1000 times to” for “with water 100 times to”, “was inoculated, separately on plates” for “was inoculated, separately, on plates”, “square cloth was placed on” for “square cloth placed on”, “cloth was examined.” for “cloth was measured.”

Penicillium Citrinum [12] = assay: as above; format: cell-based; settings: emulsifiable concentrate diluted 1000 times
Procedure: as §3, with “by Example 10 were diluted” for “by Example 20 were diluted”, “with water 1000 times to” for “with water 100 times to”, “was inoculated, separately on plates” for “was inoculated, separately, on plates”, “square cloth was placed on” for “square cloth placed on”, “cloth was examined.” for “cloth was measured.”

Bacillus subtilis [13] = assay: as above; format: cell-based; settings: emulsifiable concentrate diluted 1000 times
Procedure: as §3, with “by Example 10 were diluted” for “by Example 20 were diluted”, “with water 1000 times to” for “with water 100 times to”, “was inoculated, separately on plates” for “was inoculated, separately, on plates”, “square cloth was placed on” for “square cloth placed on”, “cloth was examined.” for “cloth was measured.”

O=C(NC=C(Cl)Cl)c1ccccc1O [Compound No. 1, N-(β,β-dichlorovinyl) salicylamide]
width of growth inhibition zones (Staphylococcus aureus [1]; Cotton, 0.005 %): 5 mm
width of growth inhibition zones (Staphylococcus aureus [1]; Cotton, 0.01 %): 9 mm
width of growth inhibition zones (Staphylococcus aureus [1]; Cotton, 0.02 %): 13 mm
width of growth inhibition zones (Staphylococcus aureus [1]; Silk, 0.005 %): 5 mm
width of growth inhibition zones (Staphylococcus aureus [1]; Silk, 0.01 %): 8 mm
width of growth inhibition zones (Staphylococcus aureus [1]; Silk, 0.02 %): 12 mm
width of growth inhibition zones (Staphylococcus aureus [1]; Vinylon, 0.005 %): 4 mm
width of growth inhibition zones (Staphylococcus aureus [1]; Vinylon, 0.01 %): 7 mm
width of growth inhibition zones (Staphylococcus aureus [1]; Vinylon, 0.02 %): 11 mm
width of growth inhibition zones (Aspergillus niger [2]; Cotton, 0.005 %): 6 mm
width of growth inhibition zones (Aspergillus niger [2]; Cotton, 0.01 %): 8 mm
width of growth inhibition zones (Aspergillus niger [2]; Cotton, 0.02 %): 11 mm
width of growth inhibition zones (Aspergillus niger [2]; Silk, 0.005 %): 5 mm
width of growth inhibition zones (Aspergillus niger [2]; Silk, 0.01 %): 7 mm
width of growth inhibition zones (Aspergillus niger [2]; Silk, 0.02 %): 8 mm
width of growth inhibition zones (Aspergillus niger [2]; Vinylon, 0.005 %): 4 mm
width of growth inhibition zones (Aspergillus niger [2]; Vinylon, 0.01 %): 6 mm
width of growth inhibition zones (Aspergillus niger [2]; Vinylon, 0.02 %): 8 mm
width of growth inhibition zones (Penicillium citrenum; Cotton, 0.005 %): 5 mm
width of growth inhibition zones (Penicillium citrenum; Cotton, 0.01 %): 7 mm
width of growth inhibition zones (Penicillium citrenum; Cotton, 0.02 %): 9 mm
width of growth inhibition zones (Penicillium citrenum; Silk, 0.005 %): 4 mm
width of growth inhibition zones (Penicillium citrenum; Silk, 0.01 %): 6 mm
width of growth inhibition zones (Penicillium citrenum; Silk, 0.02 %): 7 mm
width of growth inhibition zones (Penicillium citrenum; Vinylon, 0.005 %): 3 mm
width of growth inhibition zones (Penicillium citrenum; Vinylon, 0.01 %): 5 mm
width of growth inhibition zones (Penicillium citrenum; Vinylon, 0.02 %): 7 mm
width of growth inhibition zones (Bacillus subtilis [3]; Cotton, 0.005 %): 3 mm
width of growth inhibition zones (Bacillus subtilis [3]; Cotton, 0.01 %): 6 mm
width of growth inhibition zones (Bacillus subtilis [3]; Cotton, 0.02 %): 10 mm
width of growth inhibition zones (Bacillus subtilis [3]; Silk, 0.005 %): 3 mm
width of growth inhibition zones (Bacillus subtilis [3]; Silk, 0.01 %): 6 mm
width of growth inhibition zones (Bacillus subtilis [3]; Silk, 0.02 %): 10 mm
width of growth inhibition zones (Bacillus subtilis [3]; Vinylon, 0.005 %): 2 mm
width of growth inhibition zones (Bacillus subtilis [3]; Vinylon, 0.01 %): 5 mm
width of growth inhibition zones (Bacillus subtilis [3]; Vinylon, 0.02 %): 9 mm
growth of fungi in the paints or the cutting oil [4]: controlled

CC(=O)Oc1ccccc1C(=O)NC=C(Cl)Cl [Compound No. 6, O-acetyl-N-(2,2-dichlorovinyl) salicylamide]
pest or weed control at 500 ppm [5]: 83%
pest or weed control at 1000 ppm [6]: 96.1%
width of the region of growth-inhibition (Aspergillus niger [7]): 5 mm
width of the region of growth-inhibition (Penicillium Citrinum [8]): 7 mm
width of the region of growth-inhibition (Staphylococcus oureus): 7 mm
width of the region of growth-inhibition (Bacillus subtilis [9]): 9 mm

O=C(NC=C(Cl)Cl)c1ccccc1O [Compound No. 20, sodium salt of N-(β,β-dichlorovinyl) salicylamide]
width of the growth inhibition zone (Staphylococcus aureus [10]): 7 mm
width of the growth inhibition zone (Aspergillus niger [11]): 6 mm
width of the growth inhibition zone (Penicillium Citrinum [12]): 7 mm
width of the growth inhibition zone (Bacillus subtilis [13]): 8 mm
